Measurements reported in patent US9738697B2 (Wisconsin Alumni Research Foundation, priority 2013, dated 2017).
Each block holds one compound with its values, some of them ahead of it.

Key:
[1] = biological target: human GLP-1 receptor (Homo sapiens, UniProt P43220); assay: GLP-1R activation monitored by cAMP production in HEK293 cells
[2] = tested on: mouse pancreatic islets; assay: Islet cell insulin secretion assay (glucose-stimulated insulin secretion, insulin content); type: cell-based
Description: A critical physiological role of GLP-1 is to augment glucose-stimulated insulin secretion (GSIS) from pancreatic islet β cells. α/β-Peptide SEQ. ID. […] The results are depicted in FIG. 2.
ID. NO: 7. Approximately 100 medium sized islets were washed three times, placed in a sterile Petri dish, and incubated overnight in culture medium (RPMI 1640, with 11.1 mM glucose, antibiotics and 10% heat-inactivated fetal bovine serum). The following day, 50 islets were washed and transferred in […] of Krebs Ringer Buffer (KRB) to a Swinnex®-brand filter holder (EMD Millipore, Billerica, Mass.). The islets were sandwiched between two layers of Bio-Gel P-2 bead (Bio-Rad, Hercules, Calif.) solution (200 mg beads/mL in KRB; bottom layer, […] and top layer, […]). The Swinnex filter holder was attached in-line with a Minipuls®-brand pump (Gilson, Middleton, Wis.) and a FC 204 Fraction Collector (Gilson). Islets were perifused at the rate of 1 mL/min, and samples were collected at 30 sec intervals. Insulin content of the islets themselves and insulin secretion were determined by ELISA. […] ID. NO: 7.

[3] = biological target: T1, chymotrypsin (Bos taurus, UniProt P00766); assay: Protease assay with chymotrypsin (HPLC); type: in vitro ADME; details: chymotrypsin in TBS; 40 μM peptide, 50 μg/mL chymotrypsin, TBS pH 8.0, room temperature; read-out: t1/2 with chymotrypsin (converted)
T1 construct: purchased Promega V1062
Description: An HPLC method from the literature was used to assess protease action on selected compounds.^29,31 Two nmol of solid peptide was dissolved in 40 μL of TBS pH 8.0 (resulting concentration of peptide=40 μM) before protease was added. Chymotrypsin was purchased from Promega (Fitchburg, Wis.; catalog #V1062), and neprilysin was purchased from Reprokine. Ltd. (Valley Cottage, N.Y.; catalog #RKP08473); stock solutions of 250 μg/mL chymotrypsin and 200 μg/mL neprilysin in water were prepared. A 10 μL aliquot of protease stock solution was added to 40 μL of 40 μM peptide solution to begin the reaction. Periodically, a 10 μL aliquot of the solution was removed, and protease action was halted by adding this aliquot to 100 μL of 1% aqueous TFA solution. A portion (100 μL) of the quenched solution was injected onto an HPLC column using the conditions described under “Peptide Synthesis”, and peaks were analyzed using MALDI-TOF MS. The time course of peptide degradation was experimentally determined by integrating the area of each peak in a series of HPLC traces. The area percent of parent peptide (relative to the initial trace) was calculated for each trace and plotted in GraphPad Prism as an exponential decay to determine half-life values.
ID. […] Major backbone cut sites are indicated with double front slashes. […] Digestion occurs at three major cleavage sites. […] ID. NO: 7 with 50 μg/mL chymotrypsin in TBS pH 8.0 at room temperature. […] ID. NO: 9 with 50 μg/mL chymotrypsin in TBS pH 8.0 at room temperature. This peptide has seven substitutions, α→Aib.

[4] = biological target: T2, neprilysin (Homo sapiens, UniProt P08473); assay: Protease assay with neprilysin (HPLC); type: in vitro ADME; details: 40 μg/mL neprilysin
T2 construct: purchased Reprokine; Ltd. RKP08473
T2 sequence (P08473 whole entry): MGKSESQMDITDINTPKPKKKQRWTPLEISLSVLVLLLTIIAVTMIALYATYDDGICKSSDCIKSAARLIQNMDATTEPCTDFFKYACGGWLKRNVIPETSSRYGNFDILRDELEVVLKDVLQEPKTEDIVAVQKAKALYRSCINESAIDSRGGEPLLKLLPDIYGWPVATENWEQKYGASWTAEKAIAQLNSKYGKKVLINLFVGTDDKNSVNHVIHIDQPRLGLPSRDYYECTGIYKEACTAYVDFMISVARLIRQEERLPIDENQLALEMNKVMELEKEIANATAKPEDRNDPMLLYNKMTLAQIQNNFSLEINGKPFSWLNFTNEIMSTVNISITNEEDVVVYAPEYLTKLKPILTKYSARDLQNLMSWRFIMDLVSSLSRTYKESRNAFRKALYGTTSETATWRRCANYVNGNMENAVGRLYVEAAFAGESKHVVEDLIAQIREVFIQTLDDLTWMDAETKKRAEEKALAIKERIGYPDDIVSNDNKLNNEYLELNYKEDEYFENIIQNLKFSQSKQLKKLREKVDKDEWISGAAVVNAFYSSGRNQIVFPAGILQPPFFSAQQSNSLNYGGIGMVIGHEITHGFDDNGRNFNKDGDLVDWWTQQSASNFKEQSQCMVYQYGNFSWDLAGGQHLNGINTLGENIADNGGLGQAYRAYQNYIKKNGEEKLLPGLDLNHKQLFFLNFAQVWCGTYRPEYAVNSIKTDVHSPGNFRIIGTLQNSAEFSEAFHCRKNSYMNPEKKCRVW

[5] = tested on: C57BL/6J mice; assay: Glucose tolerance test (GTT) in mice; type: in vivo, mouse
Description: ID. NO: 7 was administered to mice by interperitoneal (i.p.) injection at a 1 mg/kg dose, or lower for SEQ. ID. NO: 7, using an injection volume of 10 mL/kg body mass. Each peptide was first dissolved in prefiltered DMSO at 10 mg/mL concentration, then diluted >20-fold with TBS buffer, pH 7.4 (final DMSO conc.=<5%). Glucose was administered by i.p. injection with a sterile-filtered 30% D-glucose-saline solution at a 1.5 g/kg dose using a 5 mL/kg injection volume.
Thirteen-week-old male C57BL/6J mice (The Jackson Laboratory) (n=4) were fasted overnight on wood chip bedding for 15 hours prior to the experiment. Blood glucose levels were monitored from a tail tip bleed using an ACCU-CHEK®-brand blood glucose meter (Roche Diagnostics, Indianapolis, Ind.). Fasting glucose levels were measured at 75 minutes prior to the glucose injection (t=−75 min), and the compound injection was performed 60 minutes prior to the glucose injection (t=−60 min). Glucose levels were measured immediately prior to the glucose injection (t=0 min) to assess any changes in the baseline glucose caused by peptide administration. Blood glucose levels were monitored at 30, 60, 90, and 120 minutes after injection of glucose.
Five hours after peptide injection, the mice received a second injection of 1.5 g/kg glucose. Blood glucose was monitored at 30 min after this second glucose injection. Mice were sacrificed by CO2 inhalation at the conclusion of the GTT.

Chain of human GLP-1 receptor (P43220 24-463): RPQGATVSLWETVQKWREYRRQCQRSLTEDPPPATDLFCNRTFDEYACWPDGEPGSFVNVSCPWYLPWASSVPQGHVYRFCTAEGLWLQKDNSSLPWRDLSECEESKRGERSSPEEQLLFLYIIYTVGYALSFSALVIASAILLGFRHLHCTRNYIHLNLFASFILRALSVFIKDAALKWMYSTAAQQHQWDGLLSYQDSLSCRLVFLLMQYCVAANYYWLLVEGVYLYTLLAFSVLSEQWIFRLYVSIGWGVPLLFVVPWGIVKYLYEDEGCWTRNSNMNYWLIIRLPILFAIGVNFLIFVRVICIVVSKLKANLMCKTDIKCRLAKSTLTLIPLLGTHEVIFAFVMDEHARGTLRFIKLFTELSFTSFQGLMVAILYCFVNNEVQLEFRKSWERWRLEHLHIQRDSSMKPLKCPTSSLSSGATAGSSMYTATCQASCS

EC50 [1]: > 100 nM | cAMP production at 100 nM (in words) ([1]; 100 nM peptide): only a small amount of cAMP production | cAMP production, AVERAGES at M Concentrations −7 ([1]; peptide concentration −7 (log M)): 100 | cAMP production, AVERAGES at M Concentrations −8 ([1]; peptide concentration −8 (log M)): 99.2328 | cAMP production, AVERAGES at M Concentrations −9 ([1]; peptide concentration −9 (log M)): 42.7672 | cAMP production, AVERAGES at M Concentrations −10 ([1]; peptide concentration −10 (log M)): 18.05 | cAMP production, AVERAGES at M Concentrations −12 ([1]; peptide concentration −12 (log M)): 5.688 | cAMP production, AVERAGES at M Concentrations −13 ([1]; peptide concentration −13 (log M)): 5.688
Compound: CC[C@H](C)[C@H](NC(=O)[C@H](Cc1ccccc1)NC(=O)[C@H](CCC(=O)O)NC(=O)C1CCCC1NC(=O)[C@H](C)NC(=O)[C@H](C)NC(=O)[C@H](CCC(N)=O)NC(=O)C1CCCC1NC(=O)[C@H](CCC(=O)O)NC(=O)[C@H](CC(C)C)NC(=O)[C@H](Cc1ccc(O)cc1)NC(=O)C1CCCC1NC(=O)[C@H](CO)NC(=O)[C@@H](NC(=O)[C@H](CC(=O)O)NC(=O)C1CCCC1NC(=O)[C@@H](NC(=O)[C@H](Cc1ccccc1)NC(=O)[C@@H](NC(=O)CNC(=O)[C@H](CCC(=O)O)NC(=O)[C@H](C)NC(=O)[C@@H](N)Cc1c[nH]cn1)[C@@H](C)O)[C@@H](C)O)C(C)C)C(=O)NC1CCCC1C(=O)N[C@@H](Cc1c[nH]c2ccccc12)C(=O)N[C@@H](CC(C)C)C(=O)N[C@H](C(=O)NC1CNCC1C(=O)NCC(=O)N[C@@H](CCCNC(=N)N)C(=O)NCC(N)=O)C(C)C (some centres unmarked) [SEQ. ID. NO: 6, H-HAEGTFTXDVSXYLEXQAAXEFIXWLVZGRG-NH2]

Compound: CC[C@H](C)[C@H](NC(=O)[C@H](Cc1ccccc1)NC(=O)[C@H](CCC(=O)O)NC(=O)[C@H](CCCCN)NC(=O)[C@H](C)NC(=O)[C@H](C)NC(=O)[C@H](CCC(N)=O)NC(=O)CNC(=O)[C@H](CCC(=O)O)NC(=O)[C@H](CC(C)C)NC(=O)[C@H](Cc1ccc(O)cc1)NC(=O)[C@H](CO)NC(=O)[C@H](CO)NC(=O)[C@@H](NC(=O)[C@H](CC(=O)O)NC(=O)[C@H](CO)NC(=O)[C@@H](NC(=O)[C@H](Cc1ccccc1)NC(=O)[C@@H](NC(=O)CNC(=O)[C@H](CCC(=O)O)NC(=O)[C@H](C)NC(=O)[C@@H](N)Cc1c[nH]cn1)[C@@H](C)O)[C@@H](C)O)C(C)C)C(=O)N[C@@H](C)C(=O)N[C@@H](Cc1c[nH]c2ccccc12)C(=O)N[C@@H](CC(C)C)C(=O)N[C@H](C(=O)N[C@@H](CCCCN)C(=O)NCC(=O)N[C@@H](CCCNC(=N)N)C(N)=O)C(C)C [GLP-1(7-36)-NH2]
increase in glucose-stimulated insulin secretion (GSIS) ([2]; freshly isolated mouse islets, 90 nM agonist): ~2 fold

agonist character at GLP-1R (in words) ([1]; cAMP production): native-like efficacy and potency
Compound: CC[C@H](C)[C@H](NC(=O)[C@H](Cc1ccccc1)NC(=O)[C@H](CCC(=O)O)NC(=O)[C@H](CCCCN)NC(=O)[C@H](C)NC(=O)[C@H](C)NC(=O)[C@H](CCC(N)=O)NC(=O)CNC(=O)[C@H](CCC(=O)O)NC(=O)[C@H](CC(C)C)NC(=O)[C@H](Cc1ccc(O)cc1)NC(=O)[C@H](CO)NC(=O)[C@H](CO)NC(=O)C(C)(C)NC(=O)[C@H](CC(=O)O)NC(=O)[C@H](CO)NC(=O)[C@@H](NC(=O)[C@H](Cc1ccccc1)NC(=O)[C@@H](NC(=O)CNC(=O)[C@H](CCC(=O)O)NC(=O)[C@H](C)NC(=O)[C@@H](N)Cc1c[nH]cn1)[C@@H](C)O)[C@@H](C)O)C(=O)N[C@@H](C)C(=O)N[C@@H](Cc1c[nH]c2ccccc12)C(=O)N[C@@H](CC(C)C)C(=O)N[C@H](C(=O)N[C@@H](CCCCN)C(=O)NCC(=O)N[C@@H](CCCNC(=N)N)C(=O)NCC(N)=O)C(C)C [SEQ. ID. NO: 14]

half-life [3]: 2.25 min | number of major cleavage sites, neprilysin ([4]; MALDI-TOF-MS): six | half-life ([4]; neprilysin in TBS, pH 8, 40 μM peptide, TBS pH 8.0, room temperature, read-out: half-life (t1/2) with neprilysin (converted)): 8.3 h
Compound: CC[C@H](C)[C@H](NC(=O)[C@H](Cc1ccccc1)NC(=O)[C@H](CCC(=O)O)NC(=O)C(C)(C)NC(=O)[C@H](C)NC(=O)[C@H](C)NC(=O)[C@H](CCC(N)=O)NC(=O)C(C)(C)NC(=O)[C@H](CCC(=O)O)NC(=O)[C@H](CC(C)C)NC(=O)[C@H](Cc1ccc(O)cc1)NC(=O)C(C)(C)NC(=O)[C@H](CO)NC(=O)C(C)(C)NC(=O)[C@H](CC(=O)O)NC(=O)[C@H](CO)NC(=O)[C@@H](NC(=O)[C@H](Cc1ccccc1)NC(=O)[C@@H](NC(=O)CNC(=O)[C@H](CCC(=O)O)NC(=O)C(C)(C)NC(=O)[C@@H](N)Cc1c[nH]cn1)[C@@H](C)O)[C@@H](C)O)C(=O)NC(C)(C)C(=O)N[C@@H](Cc1c[nH]c2ccccc12)C(=O)N[C@@H](CC(C)C)C(=O)N[C@H](C(=O)NC(C)(C)C(=O)NCC(=O)N[C@@H](CCCNC(=N)N)C(=O)NCC(N)=O)C(C)C [SEQ. ID. NO: 9]

Compound: GLP-1: glucagon-like peptide-1; used loosely for GLP-1(7-36)-NH2 (Tables 3, 5) or GLP-1(7-37)-NH2
Insulin Content average (ng/3 islets) ([2]; high glucose + 3 nM peptide): 522.1 ng/3 islets | Insulin Content average (ng/3 islets) ([2]; high glucose + 10 nM peptide): 496.4 ng/3 islets | Insulin Content average (ng/3 islets) ([2]; high glucose + 30 nM peptide): 458.6 ng/3 islets | Insulin Content average (ng/3 islets) ([2]; high glucose + 90 nM peptide): 463.1 ng/3 islets

Compound: Exendin-4: GLP-1R agonist found in the saliva of the Gila monster (39 residues), active agent in exenatide; purchased from Anaspec
rise of glucose relative to vehicle-treated mice during the GTT (in words) ([5]; 1 mg/kg): dramatic suppression | Average Blood Glucose Level ([5]; 1 mg/kg i.p., time 0.0 min): 89.5 mg/dL | Average Blood Glucose Level ([5]; 1 mg/kg i.p., time 30.0 min): 123.5 mg/dL | Average Blood Glucose Level ([5]; 1 mg/kg i.p., time 60.0 min): 87.0 mg/dL | Average Blood Glucose Level ([5]; 1 mg/kg i.p., time 90.0 min): 67.5 mg/dL | Average Blood Glucose Level ([5]; 1 mg/kg i.p., time 120.0 min): 70.0 mg/dL | Average Blood Glucose Level ([5]; 1 mg/kg i.p., time −60.0 min (peptide injection)): 118.0 mg/dL | Average Blood Glucose Level at 30 min (column head AUC) ([5]; 1 mg/kg i.p., Table 7, 30 min after second glucose injection given five hours after peptide): 118.8 | glucose-lowering effect in GTT repeated 5 hours after agonist administration (in words) ([5]; 1 mg/kg, 30 min after the second glucose challenge): maintained
